Patent publication US20040214184A1, “Small peptides capable of modulating the function of cd66 (ceacam) family members” (priority 2001, published 2004)
Entries after “also recorded” stand apart in the source; their conditions may differ.

Tested on: T-cells
Experiment: T-cell activation assay (anti-CD3 stimulated proliferation, 3H-Tdr incorporation)
Format: cell-based
Settings: for activity in the T-cell activation assay (T-cell activation by anti-CD3, proliferation quantitated by 3H-Tdr incorporation): 30 min preincubation, anti-CD3 0.3 μg/ml, 56 h then 16 h with 3H-Tdr
Description: FIG. 1. Effects of CD66a peptides on T-cell activation by anti-CD3. T-cells were added to media containing the indicated CD66a peptide S28 ((CD66a-24), (SEQ ID NO:1)) at 150 μg/ml (final concentration) or positive or negative controls in 96 well microtiter plates, and the plates were incubated at 37° C. for 30 min in 5% CO2. Media containing anti-CD3 anitbody was then added and the cells were incubated at […] for 56 hours. Twenty μL of media containing 1 μCi of ^3H-Tdr was then added to each well and the plates were incubated at 37° C. for 30 min in 5% CO2 for an additional 16 hours. The cells were then harvested onto glass fiber filter papers and the radioactivity incorporated into the cells was then determined by liquid scintillation counting. Values are shown as the amount of ^3H-Tdr incorporation in the presence of the indicated peptide as a percent of that incorpoated in the absence of peptide, and represent the means+/−SD of 4 separate determinations.
Cell Preparation. Peripheral blood mononuclear cells (PBMC) were isolated by centrifugation of heparinized blood on a Ficoll/Hypaque (Pharmacia, Uppsala, Sweden) density gradient. Cells from the interface of the gradient were harvested, and resuspended at a concentration of 10^6/ml in medium [RPMI-1640 supplemented with 10% heat inactivated fetal bovine serum, 2 mM L-glutamine, 10 mM HEPES buffer, pH 7.4, 100 U/ml penicillin and 100 ug/ml streptomycin (Gibco, Paisley, U.K.)]. To isolate T-cells, adherent cells were eliminated from PBMC by culture for one hour at 37° C. in 5% CO2 on tissue culture-treated plastic. Remaining B-cells, monocytes, and NK cells were deleted by immunomagnetic negative selection using anti-CD14, anti-CD19, and anti-CD56 microbeads per the manufacturer's recommendations (Miltenyi Biotec GMBH, Bergisch Gladbach, Germany). The purity of the isolated T-cells was >90% as assessed by flow cytometry using FITC-labeled anti-CD3 (Pharmingen, Hamburg, Germany).
T-cell activation assay. Purified T-cells (1×10^5/well) were plated into flat-bottomed 96 well microtiter plates (Greiner, Frickenhausen, Germany) and peptides were added at the indicated concentration. T-cells were incubated with the peptides for 30 min and then stimulated by adding 0.3 μg/ml of anti-CD3 mAb (Pharmingen). The cells were then incubated at 37° C. in 5% CO2 for 56 hours. One μCi of tritiated thymidine (3H-Tdr) (Amersham Buchler, Braunschweig, Germany) in 20 μl of RPMI-1640 was then added to each well, and the cells were cultured for another 16 hours. Cells were then harvested with a cell harvester (Pharmacia LKB-Wallac) onto glass fiber filter paper in a minifold filtration unit (Wallac, Turku, Finland). Individual filters were dissolved in scintillation fluid, and ^3H-Tdr incorporation was measured with a liquid scintillation counter (Pharmacia).

| Substance | activity in the T-cell activation assay (T-cell activation by anti-CD3, proliferation quantitated by 3H-Tdr incorporation) (peptide 150 μg/ml) | T-cell proliferation (3H-Tdr incorporation) in the presence of peptide compared with media alone (positive control) (peptide 150 μg/ml, anti-CD3 stimulation, 4 determinations, p<0.05) | cell proliferation (3H-Tdr incorporation) in the presence of peptide compared with the 2 scrambled peptides S159 and S160 (peptides 150 μg/ml, anti-CD3 stimulation, 4 determinations, p<0.05) |
| --- | --- | --- | --- |
| IRWFFKN [Peptide S182, smaller part (right) of peptide S28] | had activity | – | – |
| TGISIRW [Peptide S181, smaller part (middle) of peptide S28] | had activity | – | – |
| TNDTGIS [Peptide S180, smaller part (left) of peptide S28] | had activity | – | – |
| TNDTGISIRWFFKN [Peptide S28, 14-amino-acid peptide derived from CD66a] | inhibited T-cell activation by anti-CD3 compared with control; also recorded: found to have activity; also recorded: potent inhibitor of T-cell activation | statistically less than that observed with media alone | statistically less than that observed with the 2 scrambled peptides |
